Source: patent US6310051A, “Use of chelating agents in the treatment of atherosclerotic conditions” (Nycomed Imaging AS, priority 1997, dated 2001)

What was measured:
human LDL = assay: Copper-catalyzed oxidation of human LDL in vitro, increase in absorbance at 234 nm (diene-products); type: biochemical; conditions: 5 μM CuCl2, 30° C., PBS; for inhibition of LDL oxidation, concentration dependence: absorbance at 234 nm over 225 minutes; for inhibition of LDL oxidation at 5 μM: 5 μM compound; for inhibition of LDL oxidation at 5 μM / inhibition of LDL oxidation at 10 μM: 234 nm; for inhibition of LDL oxidation at 10 μM: 10 μM compound
Experimental: Copper-catalyzed LDL-oxidation was monitored by following the increase in absorbance at wavelength 234 nm over time (representing increase in diene-products).
Human LDL (1.025<d<1.050 g/ml) was freshly isolated (from sera of normolipidemic donors who had fasted overnight) by sequential ultracentrifugation, in the presence of EDTA (1.4 mg/ml) to inihibit lipid peroxidation. LDL was finally dialyzed under nitrogen against 10 mM phosphate buffer with 160 mM NaCl, pH 7.4 (PBS), for 24 h at 4° C.
Assays were performed at 30° C. in PBS by mixing 200 μl of the LDL-containing dialysate to PBS to a final volume of 2000 μl. The LDL-oxidation was started by adding 5 μM CuCl2 and the changes in absorbance at wavelength 234 nm was followed over 225 minutes.

[1] = Plasma metallo-PLED by HPLC after oral (intragastric) administration to rats; type: in vivo; conditions: rat, 100 μmol/kg MnPLED into the stomach, 5 minutes after administration
Experimental: In order to get a rough estimate of the bioavailability of MnPLED after oral administration, rats were instilled with MnPLED into the stomach and the plasma concentrations of metallo-PLED was determined at various times after administration.
100 μmol/kg MnPLED was instilled into the stomach. Blood (ca 4.5 ml) was withdrawn by cardiac puncture (under CO2 -anaesthesia) and collected in tubes containing heparin (trace metal analysis tubes), 5, 30, 60, 120 minutes and 24 hours after oral administration (2 rats for each time point). Plasma was prepared by centrifugation and ultrafiltration and metallo-PLED was determined by HPLC as described by Toft et al. 1997 (Acta Radiologica 38: 677-689).

Substance | inhibition of LDL oxidation, concentration dependence (human LDL) | inhibition of LDL oxidation at 5 μM (human LDL) | inhibition of LDL oxidation at 10 μM (human LDL) | presence of MnPLED in plasma ([1]; one animal) | transmetallation of MnPLED into ZnPLED ([1]; plasma)
MnDPDP | inhibited LDL oxidation in a concentration-dependent manner | more than 50% | almost complete inhibition |  | 
dihydrogen [N,N'-ethylenebis [N-[[3-hydroxy-5-(hydroxymethyl)-2-methyl-4-pyridyl]methyl] glycinato] (4-)] manganate(2-) [MnPLED] | inhibited LDL oxidation in a concentration-dependent manner | more than 50% | almost complete inhibition | may indicate the presence of small amounts of MnPLED in plasma | most of the MnPLED has already been transmetallated into ZnPLED
